From patent publication US9370189B2, “Controlling Pseudomonas aeruginosa persister cells with GM-CSF” (priority 2012, dated 2016)

Assays:
whole cells of E. coli = test: GM-CSF binding assay to bacterial whole cells (slot blot immunoblotting); parameters: species or system Escherichia coli; conditions: PBS, room temperature, 2 h, anti-rhGM-CSF immunoblot (FIG. 21)
Method: (§1) This Example describes experiments conducted to determine the capability of GM-CSF to bind to whole cells of P. aeruginosa and E. coli. In brief, bacteria harvested at stationary phases of growth were washed with PBS and adjusted to OD600 of 0.4 with PBS to ensure that an equal amount of cells was used for all GF-CSF binding tests. Suspensions of bacteria (10^6 CFU) were then incubated with and without different amount of recombinant human GM-CSF (rhGM-CSF, R&D systems) in a 40 μL volume at room temperature for 2 hours. After incubation, the cell suspension was centrifuged to separate supernatant (comprising buffer and unbound GM-CSF) and pellet (comprising cell and bound GM-CSF, if any), followed by the addition of 10 mM EDTA and boiling for 30 minutes to inactivate bacterial alkaline phosphatase activity. As control, PBS buffer with GM-CSF were processed in the similar manner. All the samples were then applied to Slot Blot (BioRad) for immunoblotting experiments. Anti-rhGMCSF developed in mice (Human GM-CSF MAb, Mouse IgG1, R&D system) was used as first antibody; Alkaline Phosphatase conjugated with Anti-mouse IgG was used to detect the binding of GM-CSF with BCIP/NBT (Promega) as substrates.

[1] = test system: P. aeruginosa PAO1 biofilm; test: Effect of GM-CSF on 24-h PAO1 biofilm, alone and with antibiotic; type: cell-based, Pseudomonas aeruginosa
Method: (§2) This Example describes the treatment of biofilms made from P. aeruginosa PAO1, PDO300 and Escherichia coli K12, with GM-CSF introduced directly or together with an antibiotic to test the synergy.
(§3) In brief, after preparing an overnight culture, it was subcultured to an initial OD600 of 0.01 to a total volume of 20 mL M63 medium (for PAO1 and PDO300) or 20 ml LB medium (for E. coli K12) in a petri dish with 316L stainless steel coupons (1.75 cm×1 cm). The biofilm was grown for 24 h at 37° C. without shaking. After incubation, the coupons were washed by gently dipping in 0.85% NaCl twice using tweezers and were placed in new empty petri dishes.
(§4) To test the synergistic effects between GM-CSF (2.43 pg/mL or 0.17 pM) and antibiotics, a total of 8 coupons were analyzed. These 8 coupons were placed in 4 petri dishes (2 coupons in each dish). The two dishes were labeled as control and the other two as treatment samples. In the treatment samples, GM-CSF was added to 20 mL of 0.85% NaCl to a concentration of 2.43 pg/mL (or 0.17 pM). The control samples were supplemented with the same amount of PBS and BSA as present in the samples with 2.43 pg/ml (or 0.17 pM) GM-CSF. The coupons were incubated at 37° C. for 2 h.
(§5) After incubation, a control dish and a treatment dish was selected for studying the killing effect of 2.43 pg/ml GM-CSF on biofilm cells. Each coupon after gentle washing with 0.85% NaCl buffer, was placed in a test tube with 3 mL 0.85% NaCl buffer in each. They were sonicated (B200, Sinosonic Industrial Co., Ltd., Taiwan) for 4 mins to release the biofilm cells in the buffer. After vortexing for 1 min, they were plated on LB agar plates using drop plate method. The CFU was counted after incubation at 37° C. for 24 h to count the total number of viable cells. Furthermore, the synergistic effect of antibiotics with GM-CSF was evaluated with additional 3.5 h treatment with antibiotic at 37° C. After incubation, drop plate method was performed and the CFU was counted to understand if there is a synergistic effect.

[2] = test system: P. aeruginosa PDO300 biofilm; test: Effect of GM-CSF on 24-h PDO300 biofilm, alone and with antibiotic; type: cell-based, Pseudomonas aeruginosa; conditions: for average CFU/ml of biofilm cells reduced by: reduction, PDO300 biofilm
Method: as §2, §3, §4, §5

biofilm cells of PDO300 = test: Synergistic effects of GM-CSF, tobramycin and alginate lyase on biofilm cells of PDO300; type: cell-based, Pseudomonas aeruginosa; conditions: 2.43 pg/mL GM-CSF with 200 μg/mL tobramycin, 3.5 h
Method: This Example describes an experiment, similar to the one described in Example 5 with respect to the planktonic cells of PDO300, which was performed on the biofilm cells of PDO300.
In brief, after preparing an overnight culture, it was subcultured to an OD600 of 0.01 in a total volume of 20 mL M63 medium with 316L stainless steel coupons (1.75 cm×1 cm). The biofilm was grown for 24 h at 37° C. After incubation, the coupons were washed by gently dipping in 0.85% NaCl buffer twice using tweezers and then placed in new empty petri dishes.
To test the synergistic effects of GM-CSF (2.43 pg/mL), tobramycin (200 μg/mL) and alginate lyase (0.5 mg/mL), a total of 8 coupons were included. These 8 coupons were placed in 8 microcentrifuge tubes with 2 mL of 0.85% NaCl buffer. There were 4 treatments samples, with 2 coupons for each treatment (i) Control (ii) […] Tobramycin (iii) 200 μg/mL Tobramycin and 2.43 pg/mL GM-CSF and (iv) 200 μg/mL Tobramycin, 2.43 pg/mL GM-CSF and 0.5 mg/mL Alginate lyase. […]
After incubation, each coupon was gently washed with 0.85% NaCl buffer and placed in a test tube with 2 mL of 0.85% NaCl buffer. […] The CFU was counted after incubation at 37° C. for 24 h to quantify the total number of viable cells. The synergistic effects of GM-CSF, tobramycin and alginate lyase were quantified based on CFU data.

[3] = test system: whole cells of P. aeruginosa; test: GM-CSF binding assay to bacterial whole cells (slot blot immunoblotting); parameters: species or system Pseudomonas aeruginosa; conditions: PBS, room temperature, 2 h, anti-rhGM-CSF immunoblot (FIG. 21)
Method: as §1

## GM-CSF: granulocyte macrophage-colony stimulating factor, a cytokine secreted by macrophages; recombinant human GM-CSF (R&D systems) in binding tests
Whole cells of E. coli
  binding to whole cells: not
[1]; 24-h PAO1 biofilm, 2.43 pg/mL GM-CSF with 200 μg/mL ciprofloxacin
  % change in avg. CFU/ml after adding factor + CIP: −23.8%
[1]; 24-h PAO1 biofilm, 2.43 pg/mL GM-CSF with 200 μg/mL tetracycline
  % change in avg. CFU/ml after adding factor + TET: −10.0%
[1]; 24-h PAO1 biofilm, 2.43 pg/mL GM-CSF with 200 μg/mL tobramycin
  % change in avg. CFU/ml after adding factor + TOB: −34.1%
[1]; 24-h PAO1 biofilm, 2.43 pg/mL GM-CSF with 250 μg/mL gentamycin
  % change in avg. CFU/ml after adding factor + GEN: −12.9%
[1]; reduction, PAO1 biofilm, 2.43 pg/mL GM-CSF alone, average of 2 experiments
  average CFU/ml of biofilm cells reduced by: 1.3%
[1]; reduction, PAO1 biofilm, 2.43 pg/mL GM-CSF in the presence of 200 μg/mL ciprofloxacin
  average CFU/mL of biofilm cells reduced by: 22.8%
[1]; reduction, PAO1 biofilm, 2.43 pg/mL GM-CSF in the presence of 200 μg/mL tetracycline
  average CFU/mL of biofilm cells reduced by: 7.5%
[1]; reduction, PAO1 biofilm, 2.43 pg/mL GM-CSF in the presence of 200 μg/mL tobramycin
  average CFU/mL of biofilm cells reduced by: 33.3%
[1]; reduction, PAO1 biofilm, 2.43 pg/mL GM-CSF in the presence of 250 μg/mL gentamicin
  average CFU/mL of biofilm cells reduced by: 10.5%
[2]; 24-h PDO300 biofilm, 2.43 pg/mL GM-CSF with 200 μg/mL ciprofloxacin
  % change in avg. CFU/ml after adding factor + CIP: −14.0%
[2]; 24-h PDO300 biofilm, 2.43 pg/mL GM-CSF with 200 μg/mL tobramycin
  % change in avg. CFU/ml after adding factor + TOB: −13.0%
[2]; 24-h PDO300 biofilm, 2.43 pg/ml GM-CSF with 200 μg/mL gentamicin
  % change in avg. CFU/ml after adding factor + GEN: −10.8%
[2]; 24-h PDO300 biofilm, 2.43 pg/ml GM-CSF with 200 μg/mL tetracycline
  % change in avg. CFU/ml after adding factor + TET: −7.3%
[2]; 2.43 pg/mL GM-CSF alone, average of 2 experiments
  average CFU/ml of biofilm cells reduced by: 5.64%
[2]; 2.43 pg/mL GM-CSF in the presence of 200 μg/mL ciprofloxacin
  average CFU/ml of biofilm cells reduced by: 8.8%
[2]; 2.43 pg/mL GM-CSF in the presence of 200 μg/mL gentamicin
  average CFU/ml of biofilm cells reduced by: 5.6%
[2]; 2.43 pg/mL GM-CSF in the presence of 200 μg/mL tetracycline
  average CFU/ml of biofilm cells reduced by: 1.8%
[2]; 2.43 pg/mL GM-CSF in the presence of 200 μg/mL tobramycin
  average CFU/ml of biofilm cells reduced by: 7.7%
Biofilm cells of PDO300
  additional killing of biofilm cells compared to the 200 μg/mL tobramycin treatment alone: −24.7±5.3%
[3]
  binding to whole cells: does bind
